Assays:
Type in all cases: in vivo
[1] = tested on: barnyardgrass (Echinochloa crus-galli); assay: Test A preemergence, barnyardgrass; conditions: 0 to 100 scale, 0 no effect, 100 complete control
Summary of the method: (§1)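 Compounds are applied in a non-phytotoxic solvent with surfactant, either preemergence as a directed soil spray or postemergence at the one- to two-leaf stage. Plants grow in loam–sand soil in a greenhouse, and injury is scored visually against untreated controls after about 10 d (0–100 scale).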

[2] = tested on: velvetleaf (Abutilon theophrasti); assay: Test A preemergence, velvetleaf; conditions: 1000 g ai/ha, 0 to 100 scale, 0 no effect, 100 complete control
Description: (§2) Seeds of plant species selected from barnyardgrass (Echinochloa crus-galli), crabgrass, large (large crabgrass, Digitaria sanguinalis), kochia (Kochia scoparia), ragweed (common ragweed, Ambrosia elatior), morningglory (Ipomoea spp.), velvetleaf (Abutilon theophrasti), ryegrass, Italian (Italian ryegrass, Lolium multiflorum), foxtail, giant (giant foxtail, Setaria faberii), wheat (Triticum aestivum), corn (Zea mays), and pigweed (Amaranthus retroflexus), were planted into a blend of loam soil and sand and treated preemergence with a directed soil spray using test chemicals formulated in a non-phytotoxic solvent mixture which included a surfactant. At the same time, plants selected from these crop and weed species and also blackgrass (Alopecurus myosuroides), and galium (catchweed bedstraw, Galium aparine), were planted in pots containing the same blend of loam soil and sand and treated with postemergence applications of test chemicals formulated in the same manner. Plants ranged in height from 2 to 10 cm and were in the one- to two-leaf stage for the postemergence treatment. Treated plants and untreated controls were maintained in a greenhouse for approximately 10 d, after which time all treated plants were compared to untreated controls and visually evaluated for injury. Plant response ratings, summarized in Table A, are based on a 0 to 100 scale where 0 is no effect and 100 is complete control. A dash (-) response means no test result.

[3] = tested on: morningglory (Ipomoea spp.); assay: Test A postemergence, morningglory; conditions: 1000 g ai/ha, 0 to 100 scale, 0 no effect, 100 complete control
Description: as §2

[4] = tested on: foxtail, giant (giant foxtail, Setaria faberii); assay: Test A preemergence, foxtail, giant; conditions: 0 to 100 scale, 0 no effect, 100 complete control
Summary of the method: as §1

[5] = tested on: barnyardgrass (Echinochloa crus-galli); assay: Test A postemergence, barnyardgrass; conditions: 0 to 100 scale, 0 no effect, 100 complete control
Summary of the method: as §1

[6] = tested on: velvetleaf (Abutilon theophrasti); assay: Test A postemergence, velvetleaf; conditions: 1000 g ai/ha, 0 to 100 scale, 0 no effect, 100 complete control
Description: as §2

[7] = tested on: morningglory (Ipomoea spp.); assay: Test A preemergence, morningglory; conditions: 1000 g ai/ha, 0 to 100 scale, 0 no effect, 100 complete control
Description: as §2

[8] = tested on: pigweed (Amaranthus retroflexus); assay: Test A preemergence, pigweed; conditions: 0 to 100 scale, 0 no effect, 100 complete control
Summary of the method: as §1

[9] = tested on: foxtail, giant (giant foxtail, Setaria faberii); assay: Test A postemergence, foxtail, giant; conditions: 0 to 100 scale, 0 no effect, 100 complete control
Summary of the method: as §1

[10] = tested on: crabgrass, large (large crabgrass, Digitaria sanguinalis); assay: Test A postemergence, crabgrass, large; conditions: 1000 g ai/ha, 0 to 100 scale, 0 no effect, 100 complete control
Description: as §2

[11] = tested on: wheat (Triticum aestivum); assay: Test A postemergence, wheat; conditions: 0 to 100 scale, 0 no effect, 100 complete control
Summary of the method: as §1

[12] = tested on: pigweed (Amaranthus retroflexus); assay: Test A postemergence, pigweed; conditions: 0 to 100 scale, 0 no effect, 100 complete control
Summary of the method: as §1

corn (Zea mays) [13] = assay: Test A preemergence, corn; conditions: 1000 g ai/ha, 0 to 100 scale, 0 no effect, 100 complete control
Description: as §2

corn (Zea mays) [14] = assay: Test A postemergence, corn; conditions: 0 to 100 scale, 0 no effect, 100 complete control
Summary of the method: as §1

[15] = tested on: wheat (Triticum aestivum); assay: Test A preemergence, wheat; conditions: 1000 g ai/ha, 0 to 100 scale, 0 no effect, 100 complete control
Description: as §2

[16] = tested on: crabgrass, large (large crabgrass, Digitaria sanguinalis); assay: Test A preemergence, crabgrass, large; conditions: 1000 g ai/ha, 0 to 100 scale, 0 no effect, 100 complete control
Description: as §2

[17] = tested on: sedge, umbrella (small-flower umbrella sedge, Cyperus difformis); assay: Test B flooded paddy test, sedge, umbrella; conditions: Flood, 250 g ai/ha; scale 0 to 100 (0 no effect, 100 complete control); 13 to 15 d
Summary of the method: (§3)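 Plants at the 2-leaf stage were flooded to 3 cm above soil, and test compounds were applied directly into the paddy water, which was held at that depth throughout. After 13 to 15 d in a greenhouse, injury was rated visually against untreated controls on a 0–100 scale (0 no effect, 100 complete control).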

[18] = tested on: ragweed (common ragweed, Ambrosia elatior); assay: Test A preemergence, ragweed; conditions: 0 to 100 scale, 0 no effect, 100 complete control
Summary of the method: as §1

[19] = tested on: ryegrass, Italian (Italian ryegrass, Lolium multiflorum); assay: Test A preemergence, ryegrass, Italian; conditions: 0 to 100 scale, 0 no effect, 100 complete control
Summary of the method: as §1

[20] = tested on: ducksalad (Heteranthera limosa); assay: Test B flooded paddy test, ducksalad; conditions: Flood, 250 g ai/ha; scale 0 to 100 (0 no effect, 100 complete control); 13 to 15 d
Summary of the method: as §3

[21] = tested on: ryegrass, Italian (Italian ryegrass, Lolium multiflorum); assay: Test A postemergence, ryegrass, Italian; conditions: 0 to 100 scale, 0 no effect, 100 complete control
Summary of the method: as §1

[22] = tested on: ragweed (common ragweed, Ambrosia elatior); assay: Test A postemergence, ragweed; conditions: 0 to 100 scale, 0 no effect, 100 complete control
Summary of the method: as §1

kochia (Kochia scoparia) [23] = assay: Test A preemergence, kochia; conditions: 0 to 100 scale, 0 no effect, 100 complete control
Summary of the method: as §1

[24] = tested on: blackgrass (Alopecurus myosuroides); assay: Test A postemergence, blackgrass; conditions: 0 to 100 scale, 0 no effect, 100 complete control
Summary of the method: as §1

rice (Oryza sativa) = assay: Test B flooded paddy test, rice; conditions: Flood, 250 g ai/ha; scale 0 to 100 (0 no effect, 100 complete control); 13 to 15 d
Summary of the method: as §3

[25] = tested on: galium (catchweed bedstraw, Galium aparine); assay: Test A postemergence, galium; conditions: 0 to 100 scale, 0 no effect, 100 complete control
Summary of the method: as §1

kochia (Kochia scoparia) [26] = assay: Test A postemergence, kochia; conditions: 0 to 100 scale, 0 no effect, 100 complete control
Summary of the method: as §1

[27] = tested on: barnyardgrass (Echinochloa crus-galli); assay: Test B flooded paddy test, barnyardgrass; conditions: Flood, 250 g ai/ha; scale 0 to 100 (0 no effect, 100 complete control); 13 to 15 d
Summary of the method: as §3

O=C1NCC(c2ccccc2)N1C(=O)Nc1ccccc1 (stereo not shown) [Compound 6]
50: Plant response rating, Crabgrass, Large [16]
0: Plant response rating, Barnyardgrass ([1]; 1000 g ai/ha) | Plant response rating, Velvetleaf [2] | Plant response rating, Morningglory [3] | Plant response rating, Foxtail, Giant ([4]; 1000 g ai/ha) | Plant response rating, Barnyardgrass ([5]; 1000 g ai/ha) | Plant response rating, Velvetleaf [6] | Plant response rating, Morningglory [7] | Plant response rating, Pigweed ([8]; 1000 g ai/ha) | Plant response rating, Foxtail, Giant ([9]; 1000 g ai/ha) | Plant response rating, Crabgrass, Large [10] | Plant response rating, Wheat ([11]; 1000 g ai/ha) | Plant response rating, Pigweed ([12]; 1000 g ai/ha) | Plant response rating, Corn (corn (Zea mays) [13]) | Plant response rating, Corn (corn (Zea mays) [14]; 1000 g ai/ha) | Plant response rating, Wheat [15]

CN1CC(c2ccc(C(F)(F)F)cc2)N(C(=O)Nc2ccc(F)cc2F)C1=O (stereo not shown) [Compound 15]
10: Plant response rating, Barnyardgrass [27]
0: Plant response rating, Barnyardgrass ([1]; 31 g ai/ha) | Plant response rating, Barnyardgrass ([1]; 125 g ai/ha) | Plant response rating, Sedge, Umbrella [17] | Plant response rating, Foxtail, Giant ([4]; 31 g ai/ha) | Plant response rating, Foxtail, Giant ([4]; 125 g ai/ha) | Plant response rating, Barnyardgrass ([5]; 31 g ai/ha) | Plant response rating, Barnyardgrass ([5]; 125 g ai/ha) | Plant response rating, Ragweed ([18]; 31 g ai/ha) | Plant response rating, Ragweed ([18]; 125 g ai/ha) | Plant response rating, Pigweed ([8]; 31 g ai/ha) | Plant response rating, Pigweed ([8]; 125 g ai/ha) | Plant response rating, Ryegrass, Italian ([19]; 31 g ai/ha) | Plant response rating, Ryegrass, Italian ([19]; 125 g ai/ha) | Plant response rating, Foxtail, Giant ([9]; 31 g ai/ha) | Plant response rating, Foxtail, Giant ([9]; 125 g ai/ha) | Plant response rating, Wheat ([11]; 31 g ai/ha) | Plant response rating, Wheat ([11]; 125 g ai/ha) | Plant response rating, Pigweed ([12]; 31 g ai/ha) | Plant response rating, Pigweed ([12]; 125 g ai/ha) | Plant response rating, Ryegrass, Italian ([21]; 31 g ai/ha) | Plant response rating, Ryegrass, Italian ([21]; 125 g ai/ha) | Plant response rating, Ragweed ([22]; 31 g ai/ha) | Plant response rating, Ragweed ([22]; 125 g ai/ha) | Plant response rating, Kochia (kochia (Kochia scoparia) [23]; 31 g ai/ha) | Plant response rating, Kochia (kochia (Kochia scoparia) [23]; 125 g ai/ha) | Plant response rating, Corn (corn (Zea mays) [14]; 31 g ai/ha) | Plant response rating, Corn (corn (Zea mays) [14]; 125 g ai/ha) | Plant response rating, Blackgrass ([24]; 31 g ai/ha) | Plant response rating, Blackgrass ([24]; 125 g ai/ha) | Plant response rating, Rice (rice (Oryza sativa)) | Plant response rating, Galium ([25]; 31 g ai/ha) | Plant response rating, Galium ([25]; 125 g ai/ha) | Plant response rating, Kochia (kochia (Kochia scoparia) [26]; 31 g ai/ha) | Plant response rating, Kochia (kochia (Kochia scoparia) [26]; 125 g ai/ha)
60: Plant response rating, Ducksalad [20]

O=C1CCC(c2ccc(Cl)cc2)N1C(=O)Nc1ccc(F)c(F)c1F (stereo not shown) [Compound 22]
0: Plant response rating, Barnyardgrass ([1]; 31 g ai/ha) | Plant response rating, Barnyardgrass ([1]; 125 g ai/ha) | Plant response rating, Sedge, Umbrella [17] | Plant response rating, Foxtail, Giant ([4]; 31 g ai/ha) | Plant response rating, Foxtail, Giant ([4]; 125 g ai/ha) | Plant response rating, Barnyardgrass ([5]; 31 g ai/ha) | Plant response rating, Barnyardgrass ([5]; 125 g ai/ha) | Plant response rating, Ragweed ([18]; 31 g ai/ha) | Plant response rating, Ragweed ([18]; 125 g ai/ha) | Plant response rating, Pigweed ([8]; 31 g ai/ha) | Plant response rating, Pigweed ([8]; 125 g ai/ha) | Plant response rating, Ryegrass, Italian ([19]; 31 g ai/ha) | Plant response rating, Ryegrass, Italian ([19]; 125 g ai/ha) | Plant response rating, Foxtail, Giant ([9]; 31 g ai/ha) | Plant response rating, Foxtail, Giant ([9]; 125 g ai/ha) | Plant response rating, Ducksalad [20] | Plant response rating, Wheat ([11]; 31 g ai/ha) | Plant response rating, Wheat ([11]; 125 g ai/ha) | Plant response rating, Pigweed ([12]; 31 g ai/ha) | Plant response rating, Pigweed ([12]; 125 g ai/ha) | Plant response rating, Ryegrass, Italian ([21]; 31 g ai/ha) | Plant response rating, Ryegrass, Italian ([21]; 125 g ai/ha) | Plant response rating, Ragweed ([22]; 31 g ai/ha) | Plant response rating, Ragweed ([22]; 125 g ai/ha) | Plant response rating, Kochia (kochia (Kochia scoparia) [23]; 31 g ai/ha) | Plant response rating, Kochia (kochia (Kochia scoparia) [23]; 125 g ai/ha) | Plant response rating, Corn (corn (Zea mays) [14]; 31 g ai/ha) | Plant response rating, Corn (corn (Zea mays) [14]; 125 g ai/ha) | Plant response rating, Blackgrass ([24]; 31 g ai/ha) | Plant response rating, Blackgrass ([24]; 125 g ai/ha) | Plant response rating, Rice (rice (Oryza sativa)) | Plant response rating, Galium ([25]; 31 g ai/ha) | Plant response rating, Galium ([25]; 125 g ai/ha) | Plant response rating, Kochia (kochia (Kochia scoparia) [26]; 31 g ai/ha) | Plant response rating, Kochia (kochia (Kochia scoparia) [26]; 125 g ai/ha) | Plant response rating, Barnyardgrass [27]

Reference: patent publication US11178873B2, “Cyclic N-carboxamide compounds useful as herbicides” (FMC CORPORATION, priority 2015, dated 2021)
